Patent US8450352B2, “Thiazole compounds and their use for inhibiting phosphodiesterase 4, TNF-α, and IL-4” (Otsuka Pharmaceutical Co., Ltd., priority 2004, dated 2013)

What was measured:
human PDE4D (HPDE4D) = biological target: T1, human PDE4D (HPDE4D) (Homo sapiens, UniProt Q08499); assay: Confirmatory test for phosphodiesterase (PDE) 4 inhibitory activity; format: biochemical; conditions: concentration that inhibits the PDE4 activity by 50%; PDE4D enzyme solution from transfected COS-7 cells, [3H]cAMP substrate
T1 construct: made in house; host or cells: COS-7 cells (African green monkey kidney), transient transfection; soluble supernatant of the homogenate
T1 sequence (Q08499 whole entry): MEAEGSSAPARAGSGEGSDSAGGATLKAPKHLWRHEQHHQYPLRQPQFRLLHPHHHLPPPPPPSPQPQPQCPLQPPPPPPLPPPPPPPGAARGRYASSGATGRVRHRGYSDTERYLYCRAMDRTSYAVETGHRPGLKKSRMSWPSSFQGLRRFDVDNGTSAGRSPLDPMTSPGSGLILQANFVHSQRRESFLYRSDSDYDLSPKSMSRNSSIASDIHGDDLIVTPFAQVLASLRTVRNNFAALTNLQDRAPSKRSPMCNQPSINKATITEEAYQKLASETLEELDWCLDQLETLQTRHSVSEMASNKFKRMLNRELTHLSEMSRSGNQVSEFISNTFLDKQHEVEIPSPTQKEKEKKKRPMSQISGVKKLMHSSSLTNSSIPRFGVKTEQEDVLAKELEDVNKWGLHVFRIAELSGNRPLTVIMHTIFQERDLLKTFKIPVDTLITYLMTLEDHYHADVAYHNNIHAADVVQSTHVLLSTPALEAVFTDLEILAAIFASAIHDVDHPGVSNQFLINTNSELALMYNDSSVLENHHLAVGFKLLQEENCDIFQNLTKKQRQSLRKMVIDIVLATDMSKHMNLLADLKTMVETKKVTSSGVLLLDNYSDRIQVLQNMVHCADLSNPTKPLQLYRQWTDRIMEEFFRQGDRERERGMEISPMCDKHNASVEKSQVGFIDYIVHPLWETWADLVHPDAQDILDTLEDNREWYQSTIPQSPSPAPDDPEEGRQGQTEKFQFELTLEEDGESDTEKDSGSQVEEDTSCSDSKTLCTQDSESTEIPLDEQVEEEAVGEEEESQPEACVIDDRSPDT
Excerpt: Confirmatory Test for Phosphodiesterase (PDE) 4 Inhibitory Activity
(1) Mass Preparation of Plasmids
Plasmids containing genes coding for human PDE4D (HPDE4D) (stored in Otsuka America Pharmaceutical, Inc., Maryland Research Laboratories) were transformed into Escherichia coli, and mass cultured. The plasmids were then purified using EndoFree™ Plasmid Mix Kit (Qiagen).
(2) Mass expression and purification of PDE4D
African green monkey kidney-derived COS-7 cells (RCB 0539) were subcultured in a DMEM medium containing 100 units/ml penicillin, […] streptomycin and 10% FBS. The plasmids prepared in (1) were transfected into the cells, using LipofectAMINE™ 2000 Reagent (hereinafter referred to as “LF2000”, a product of Invitroge), according to the attached protocol. For comparison, pcDNA3.1 was transfected as a control vector. The COS-7 cells were inoculated into 10 cm diameter petri dishes on the day before transfection, so that the cells reached 90% confluence on the day of transfection. Twelve micrograms of the plasmids diluted with 0.9 ml of OPTI-MEM I (Invitrogen) (a plasmid solution; Solution A) and 30 μl of LF2000 diluted with 0.9 ml of OPTI-MEM I (a LF2000 solution; Solution B) were prepared per petri dish, and allowed to stand at room temperature for 5 minutes. Solutions A and B were then mixed together and allowed to stand at room temperature for 20 minutes. The mixture was added to the cultured cells, and incubation was performed overnight at 37° C. in an atmosphere of 5% CO2. The culture medium was changed on the following day, incubation was continued overnight, and the cells were collected by the following procedure. First, the cells were washed once with PBS (Sigma), and 2 ml of Trypsin-EDTA solution (Sigma) was added per petri dish, spread over the dish and removed. The cells were then allowed to stand at 37° C. for 2 to 3 minutes, separated from the petri dish and suspended in a medium. The suspension was placed in a centrifuge tube, and centrifuged at 200×g and 4° C. for 5 minutes. The supernatant was then removed. The cells were further washed with PBS and stored at −80° C. A KHEM buffer (50 mM Hepes, 50 mM KCl, 10 mM EGTA, 1.92 mM MgCl2, pH 7.2) containing 1 mM DTT, 40 μg/ml PMST, 156 μg/ml benzamidine, 1 μg/ml apotinin, 1 μg/ml leupeptin, 1 μg/ml pepstatin A, and 1 μg/ml antipain was added to the cells that had been stored, and the resulting mixture was placed in a glass homogenizer and homogenized on ice. The cell suspension was centrifuged at 100×g and 4° C. for 5 minutes, and the supernatant was further centrifuged at 100,000×g for 1 hour. Thereafter, the supernatant was dispensed into new tubes as a PDE4D enzyme solution, and stored in an ultra-low-temperature freezer. The protein concentration of the PDE4D enzyme solution was then measured.
(3) Determination of Dilution Factor of PDE4D Enzyme Solution
The PDE4D enzyme solution prepared in (2) was diluted 10-, 25-, 50-, 100-, 200-, 400- and 800-fold with 20 mM Tris-HCl (pH 7.4), and the PDE4D activities of the diluted enzyme solutions were measured by the method described in (4) to determine the optimum dilution factor to obtain a PDE4D enzyme solution in which degraded cAMP constituted 10 to 30% of the total cAMP.
(4) Measurement of PDE4D Inhibitory Activity
The necessary amount of each test substance was weighed out and dissolved in 100% DMSO to a concentration of 10 mM. The resulting solutions were stored in a freezer as test substance stock solutions. Before the inhibitory activity measurement, the stock solutions were melted, diluted 2-fold with 100% DMSO to a concentration of 5 mM, and further diluted with 100% DMSO to obtain test substance solutions with 10 graded concentrations. Each test substance solution was added to a 1.2 ml tube containing 23 μl of 20 mM Tris-HCl (pH 7.4). […]

TNF-α production = assay: Measurement of TNF-α production inhibitory activity; format: cell-based; conditions: PBMC; concentration that inhibits TNF-α production by 50%; LPS (1 μg/ml)-stimulated human peripheral blood mononuclear cells, 24 hours, ELISA
Experimental: Measurement of TNF-α Production Inhibitory Activity
The following tests were performed to evaluate TNF-α production inhibitory activity.
(1) Separation of Human Peripheral Blood Mononuclear Cells
A peripheral blood sample was obtained from a healthy adult donor who had signed a written informed consent. Thirty milliliters of the blood sample, which had been heparinized, was dispensed into a Leucosep tube (Greiner) containing 16 ml of a lymphocyte separation solution (Nakarai Chemical, Ltd.) under the filter barrier, and centrifuged at 1000×g for 15 minutes.
The intermediate layer corresponding to a mononuclear cell fraction was collected in a 50 ml centrifuge tube, and washed twice with a RPMI 1640 medium. After trypan blue staining, the viable count was determined and adjusted to 2×10^6 cells/ml with RPMI 1640 medium.
(2) Induction of TNF-α Production
E. coli (Serotype 055:B5)-derived LPS, which had been dissolved in a RPMI 1640 medium to a concentration of 5 mg/ml, sterilized by filtration and stored in a freezer, was melted and diluted with a RPMI 1640 medium to 10 μg/ml. The test substances were dissolved in DMSO to obtain solutions with a concentration of […] the final use concentration. One microliter of each of the graded concentration test substance solutions, 149 μl of RPMI 1640 medium, 50 μl of LPS solution (final concentration: 1 μg/ml), 50 μl of fetal bovine serum, and […] of the peripheral blood mononuclear cell suspension were dispensed to each well of a 48-well plate and incubated at 37° C. for 24 hours.
(3) Measurement of TNF-α Concentration
After completion of the incubation, the culture supernatant was collected from each well, and the TNF-α concentration in the supernatant was measured by ELISA method (Human TNF-α Eli-pair, Diaclone).

Row | Compound | melting point [°C] | IC50 (human PDE4D (HPDE4D)) [nM] | IC50 (TNF-α production) [nM]
1 | CCOc1ccc(-c2nc(CCC(=O)c3ccccc3C#N)cs2)cc1OCC [Example 239, 2-{3-[2-(3,4-diethoxyphenyl)thiazole-4-yl]propionyl}benzonitrile] | 113.7 to 114.8 | 9.7 | 
2 | CCOc1ccc(-c2nc(CCC(=O)c3ccccc3C)cs2)cc1OCC [Example 107] | 107.1 to 107.4 | 5.8 | 
3 | CCOc1ccc(-c2nc(CCC(=O)c3ccccc3)cs2)cc1OCC [Example 91] | 113.3 to 113.6 |  | 543
4 | CCOc1ccc(-c2nc(CCCc3ncccc3OC)cs2)cc1OCC.Cl.Cl [Example 238, 2-{3-[2-(3,4-diethoxyphenyl)thiazole-4-yl]propyl}-3-methoxypyridine dihydrochloride] | 169.4 to 171.2 | 7.2 | 
5 | CCOc1ccc(-c2nc(/C=C/C(=O)c3ccccc3OC)cs2)cc1OCC [Example 1, (E)-3-[2-(3,4-diethoxyphenyl)thiazole-4-yl]-1-(2-methoxyphenyl)propenone] | 130 to 131 | 23.6 | 8
6 | CCOc1ccc(-c2nc(CCC(=O)c3ccccc3OC)cs2)cc1OCC [Example 89, 3-[2-(3,4-diethoxyphenyl)thiazole-4-yl]-1-(2-methoxyphenyl)-1-propanone] | 68.9 to 69.3 |  | 7
7 | CCOc1ccc(-c2nc(CCC(=O)c3ccccc3C(F)(F)F)cs2)cc1OCC [Example 99] | 91.7 to 93 | 29 | 

Continued by falling IC50 (human PDE4D (HPDE4D)), values first:

Row | melting point [°C] | IC50 (human PDE4D (HPDE4D)) [nM] | IC50 (TNF-α production) [nM] | Compound
8 | 102.8 to 104.2 | 5.7 |  | CCOc1ccc(-c2nc(CCC(=O)c3ccc(Cl)cc3OC)cs2)cc1OCC [Example 106]
9 | 84.3 to 86.1 | 2.3 |  | CCOc1ccc(-c2nc(CCC(=O)c3ccccc3OCC)cs2)cc1OCC [Example 100]
10 | 79.2 to 79.7 | 0.4 |  | CCOc1ccc(-c2nc(CCC(=O)c3ncccc3OC)cs2)cc1OCC [Example 88, 3-[2-(3,4-diethoxyphenyl)thiazole-4-yl]-1-(3-methoxypyridine-2-yl)-1-propanone]
